SMILES strings stand for the structures. Some results are limits rather than exact numbers.

The melting point is the temperature of the solid-liquid transition.

The molecule `CC(C)(C)c1nnc(NC(=O)c2ccc(C3CCC(CC(=O)O)CC3)cc2)s1` (centres unmarked) [Compound 14, {4-[4-(5-tert-butyl[1,3,4]thiadiazol-2-ylcarbamoyl)phenyl]cyclohexyl}acetic acid] displayed a melting point of 298 °C.
In turn, `O=C(O)CC1CCC(c2ccc(C(=O)Nc3nnc(C4CCCC4)s3)cc2)CC1` (centres unmarked) [Compound 16, {4-[4-(5-cyclopentyl[1,3,4]thiadiazol-2-ylcarbamoyl)phenyl]cyclohexyl}acetic acid] showed a melting point of 274 °C.
Molecule `O=C(O)CC1CCC(c2ccc(C(=O)Nc3nnc(CC4CCCC4)s3)cc2)CC1` (centres unmarked) [Compound 17, {4-[4-(5-cyclopentylmethyl[1,3,4]thiadiazol-2-ylcarbamoyl)phenyl]cyclohexyl}acetic acid] returned a melting point of 268 °C.
As to `CC(C)Cc1nnc(NC(=O)c2ccc(C3CCC(CC(=O)O)CC3)cc2)s1` (centres unmarked) [Compound 19, {4-[4-(5-isobutyl[1,3,4]thiadiazol-2-ylcarbamoyl)phenyl]cyclohexyl}acetic acid], the melting point worked out at 263 °C.
Next, `O=C(O)CC1CCC(c2ccc(C(=O)Nc3nnc(COc4ccccc4)s3)cc2)CC1` (centres unmarked) [Compound 22, {4-[4-(5-phenoxymethyl[1,3,4]thiadiazol-2-ylcarbamoyl)phenyl]cyclohexyl}acetic acid]: 261 °C; `O=C(O)CC1CCC(c2ccc(C(=O)Nc3nnc(CCCc4ccc(F)cc4)s3)cc2)CC1` (centres unmarked) [Compound 23, [4-(4-{5-[3-(4-fluorophenyl)propyl][1,3,4]thiadiazol-2-ylcarbamoyl}phenyl)cyclohexyl]-acetic acid]: 229 °C.
`O=C(O)CC1CCC(c2ccc(C(=O)Nc3nnc(COc4ccc(F)cc4)s3)cc2)CC1` (centres unmarked) [Compound 24, (4-{4-[5-(4-fluorophenoxymethyl)[1,3,4]thiadiazol-2-ylcarbamoyl]phenyl}cyclohexyl)-acetic acid] registered a melting point of 275 °C.
As to `O=C(O)C=C1CCC(c2ccc(C(=O)Nc3nnc(Cc4ccccc4)s3)cc2)CC1` (centres unmarked) [Compound 42, {4-[4-(5-benzyl[1,3,4]thiadiazol-2-ylcarbamoyl)phenyl]cyclohexylidene}acetic acid], the melting point came to 255 °C.
Next, `O=C(Nc1nnc(Cc2ccccc2)s1)c1ccc(C2CCC3(CC2)CC3C(=O)O)cc1` (centres unmarked) [Compound 43, 6-[4-(5-benzyl[1.3.4]thiadiazol-2-ylcarbamoyl)phenyl]spiro[2.5]-octane-1-carboxylic acid]: 255 °C; `O=C(O)COC1CCC(c2ccc(C(=O)Nc3nnc(Cc4ccccc4)s3)cc2)CC1` (stereo not drawn) [Compound 46, trans-{4-[4-(5-benzyl[1.3.4]thiadiazol-2-ylcarbamoyl)phenyl]cyclohexyloxy}acetic acid]: 250 to 255 °C.
As for `O=C(O)C[C@H]1CC[C@H](c2ccc(C(=O)Nc3nnc(CCN4CCOCC4)s3)cc2)CC1` [Compound 48, trans-(4-{4-[5-(2-morpholin-4-ylethyl)[1,3,4]thiadiazol-2-ylcarbamoyl]phenyl}cyclohexyl)acetic acid], the melting point came to 213 °C.
For `O=C(O)C[C@H]1CC[C@H](c2ccc(C(=O)Nc3nnc(N4CCOCC4)s3)cc2)CC1` [Compound 49, trans-{4-[4-(5-morpholin-4-yl[1,3,4]thiadiazol-2-ylcarbamoyl)phenyl]cyclohexyl}acetic acid], the melting point was above 250 °C.
`O=C(Nc1nnc(CCC2CCCC2)s1)c1ccc(O[C@H]2CC[C@@H](C(=O)O)CC2)cc1` [Compound 57, cis-4-{4-[5-(2-cyclopentylethyl)[1,3,4]thiadiazol-2-ylcarbamoyl]phenoxy}cyclohexanecarboxylic acid] yielded a melting point of 270 °C.
The value for `O=C(Nc1nncs1)c1ccc(O[C@H]2CC[C@@H](C(=O)O)CC2)cc1` [Compound 61, cis-4-[4-([1,3,4]thiadiazol-2-ylcarbamoyl)phenoxy]cyclohexanecarboxylic acid] was 277 °C; that for `O=C(O)C[C@H]1CC[C@H](c2ccc(C(=O)Nc3nnc([C@H]4C[C@@H](c5ccccc5)C4)s3)cc2)CC1` [Compound 75, trans-(4-{4-[5-(3-phenylcyclobutyl)[1,3,4]thiadiazol-2-ylcarbamoyl]phenyl}cyclohexyl)acetic acid] was 258 °C; that for `O=C(O)C[C@H]1CC[C@H](c2ccc(C(=O)Nc3nnc(NC(=O)Cc4ccccc4)s3)cc2)CC1` [Compound 76, {4-[4-(5-phenylacetylamino[1,3,4]thiadiazol-2-ylcarbamoyl)phenyl]cyclohexyl}acetic acid] was 291 °C.
Turning to `O=C(O)C[C@H]1CC[C@H](c2ccc(C(=O)Nc3nnc(Cc4cc(F)cc(F)c4)s3)cc2)CC1` [Compound 78, trans-(4-{4-[5-(3,5-difluorobenzyl)[1,3,4]thiadiazol-2-ylcarbamoyl]phenyl}cyclohexyl)-acetic acid], the melting point amounted to 294 °C.
`O=C(O)C[C@H]1CC[C@H](c2ccc(C(=O)Nc3nnc(CC4CCC(O)CC4)s3)cc2)CC1` (stereo partly drawn) [Compound 79, trans-(4-{4-[5-(4-hydroxycyclohexylmethyl)[1,3,4]thiadiazol-2-ylcarbamoyl]phenyl}-cyclohexyl)acetic acid]: the melting point was above 250 °C.
`O=C(O)C[C@H]1CC[C@H](Oc2ccc(C(=O)Nc3nnc(Cc4ccccc4)s3)cc2)CC1` [Compound 81, trans-{4-[4-(5-benzyl[1,3,4]thiadiazol-2-ylcarbamoyl)phenoxy]cyclohexyl}acetic acid]: the melting point is 230 to 250 °C.
Next, `O=C(Nc1nnc(COCC2CCCO2)s1)c1ccc(O[C@H]2CC[C@H](C(=O)O)CC2)cc1` (stereo partly drawn) [Compound 82, trans-4-{4-[5-(tetrahydrofuran-2-ylmethoxymethyl)[1,3,4]thiadiazol-2-ylcarbamoyl]-phenoxy}cyclohexanecarboxylic acid]: 217 to 223 °C; `O=C(O)C[C@H]1CC[C@H](c2ccc(C(=O)Nc3nnc(CCC(=O)c4ccccc4)s3)cc2)CC1` [Compound 83, trans-(4-{4-[5-(3-oxo-3-phenylpropyl)[1,3,4]thiadiazol-2-ylcarbamoyl]phenyl}cyclohexyl)acetic acid]: 240 to 268 °C; `O=C(O)C[C@H]1CC[C@H](c2ccc(C(=O)Nc3nnc(CCC(O)c4ccccc4)s3)cc2)CC1` (some centres unmarked) [Compound 84, (4-{4-[5-(3-hydroxy-3-phenylpropyl)[1.3.4]thiadiazol-2-ylcarbamoyl]-phenyl}cyclohexyl)acetic acid]: 239 to 242 °C.
`O=C(Nc1nnc(-c2cccc(Cl)c2)s1)c1ccc([C@H]2CC[C@H]([C@H]3C[C@@H]3C(=O)O)CC2)cc1` [Compound 85, trans-(1S,2R)-2-(4-{4-[5-(3-chlorophenyl)[1,3,4]thiadiazol-2-ylcarbamoyl]phenyl}cyclohexyl)cyclopropanecarboxylic acid]: the melting point is above 250 °C.
Next, `O=C(O)C[C@H]1CC[C@H](c2ccc(C(=O)Nc3nnc(NC4CCCC4)s3)cc2)CC1` [Compound 92, trans-{4-[4-(5-cyclopentylamino[1,3,4]thiadiazol-2-ylcarbamoyl)phenyl]cyclohexyl}-acetic acid]: 335 °C; `O=C(C[C@H]1CC[C@H](c2ccc(C(=O)Nc3nnc(Cc4ccccc4)s3)cc2)CC1)NCC1COCCO1` (stereo partly drawn) [Compound 93, trans-N-(5-benzyl[1,3,4]thiadiazol-2-yl)-4-(4-{[([1,4]dioxan-2-ylmethyl)carbamoyl]-methyl}cyclohexyl)benzamide]: 281 °C; `O=C(O)C[C@H]1CC[C@H](c2ccc(C(=O)Nc3nnc(C[S+]([O-])Cc4ccccc4)s3)cc2)CC1` (stereo partly drawn) [Compound 95, trans-{4-[4-(5-phenylmethanesulfinylmethyl[1.3.4]thiadiazol-2-ylcarbamoyl)phenyl]cyclohexyl}acetic acid]: 241 °C.
`O=C(O)C[C@H]1CC[C@H](c2ccc(C(=O)Nc3nnc(CSCc4ccccc4)s3)cc2)CC1` [Compound 96, trans-{4-[4-(5-benzylsulfanylmethyl[1,3,4]thiadiazol-2-ylcarbamoyl)phenyl]cyclohexyl}-acetic acid] came in with a melting point of 234 °C.
Regarding `O=C(O)C[C@H]1CC[C@H](c2ccc(C(=O)Nc3nnc(C4CC(c5ccccc5)C4)s3)cc2)CC1` (stereo partly drawn) [Compound 97, trans-(4-{4-[5-(3-phenylcyclobutyl)[1,3,4]thiadiazol-2-ylcarbamoyl]phenyl}cyclohexyl)-acetic acid], the melting point came out at 247 °C.
`O=C(CCc1nnc(NC(=O)c2ccc(O[C@H]3CC[C@@H](C(=O)O)CC3)cc2)s1)c1ccccc1` [Compound 102, cis-4-{4-[5-(3-oxo-3-phenylpropyl)[1,3,4]thiadiazol-2-ylcarbamoyl]phenoxy}cyclohexanecarboxylic acid] gave a melting point of 220 to 260 °C.

The values above are taken from patent publication US8546391B2, “Thiadiazole and oxadiazole derivatives, preparation thereof and therapeutic use thereof” (Sanofi, priority 2009, dated 2013).
